Patent US20180153840A1, “THE COMPOSITIONS OF GLYCEROL AND /OR NON-TOXIC AMINO ACIDS FOR INHIBITING AND DESTROYING BIOFILM, INCLUDING RELATED METHODS” (priority 2015, published 2018)
Where two headings read alike, the source gives them in different places.

Columns and labels:
C. albicans biofilm [1] = test: Fungal biofilm inhibition assay; assay type: cell-based, Candida albicans; conditions: sustained inhibition assay, 1% amino acid, p≤0.001
Protocol: (§1) For fungal biofilm assays, all solutions were prepared in RPMI 1640 medium. All bacterial biofilm solutions were prepared in Trypic Soy Broth (TSB), supplemented with 1% glucose (henceforth referred to as TSB-G). All subsequent procedures were performed in a manner that maintained sterility. A solution of each amino acid to be tested was prepared in weight to volume concentrations ranging from 0.1-5.0%. Amino acids were also tested in combinations. Compound solutions were homogenized with gentle agitation in the dark (4° C., 24 hours) before use.
(§2) All biofilm assays were performed using 384-well non-tissue culture treated polystyrene plates. The fungal species tested are as follows: Candida albicans, Candida guilliermondii Candida parapsilosis, Candida glabrata, Candida tropicalis and Candida dubliniensis. The bacterial species tested are as follows: Staphylococcus aureus (standard wild type and methicillin-resistant strain USA300), Escherichia coli, Pseudomonas aeruginosa and Staphylococcus epidermidis.
(§3) Fungal strains were streaked on Yeast Peptone Dextrose (YPD) agar plates and incubated at 30° C. for 48 hours. A single colony from each strain to be tested was inoculated into YPD broth and grown for 12 hours, at 30° C., shaking at 225 rpm. For the fungal biofilm inhibition assay, 1 μl of saturated overnight cell culture was added to either 80 μL of RPMI-1640 or RPMI-1640 supplemented with the amino acid compound solution to be tested, in a 384-well plate. The cells were allowed to adhere to the plate for 90 minutes at 37° C. with shaking (350 rpm). Loosely bound cells were washed once with phosphate buffered saline (PBS) and 80 ul of RPMI-1640, or RPMI-1640 supplemented with the amino acid compound solution was added to the plate. The plate was further incubated for 24 hours at 37° C. with shaking (350 rpm). Media was carefully aspirated and the biofilm was measured for fungal cell concentration by optical density at 600 nm. Twelve replicates were performed for each tested condition and the reported values were normalized to the control (RPMI-1640 media only).

[2] = tested on: bacterial and fungal biofilms; test: In vitro testing on bacterial and fungal biofilms; assay type: cell-based; conditions: for effect on bacterial and fungal biofilm (in words): in vitro
Protocol: as §1, §2, §3
(§4) For the fungal biofilm disruption assays, 80 μL of RPMI-1640 was added to the plate, along with 1 μL of overnight cell culture. The cells were allowed to adhere to the plate for 90 minutes at 37° C. with shaking (350 rpm). Loosely bound cells were washed once with PBS and 80 μL of RPMI-1640 was added to the plate. The plate was further incubated for 24 hours at 37° C. with shaking (350 rpm). Media was carefully aspirated from the mature biofilm and 80 μL of RPMI-1640, or RPMI-1640 supplemented with the amino acid compound solution to be tested, was gently added to the plate. The plate was further incubated for 24 hours at 37° C. with shaking (350 rpm). Media was carefully aspirated and the biofilm was measured for fungal cell concentration by optical density at 600 nm. Twelve replicates were performed for each tested condition and the reported values are normalized to the control (RPMI-1640 media only).
(§5) Bacterial strains were streaked on Blood Agar plates (5% sheep blood in Tryptic Soy Broth) and incubated at 37° C. for 24 hours. A single colony from each strain to be tested was inoculated in a TSB broth and grown for 12 hours, at 37° C. with shaking (225 rpm).
(§6) For the bacterial biofilm inhibition assays, 1 μL of saturated overnight cell culture was added to either 80 μL of TSB-G, or TSB-G supplemented with the amino acid compound solution to be tested, in a 384-well plate. The cells were allowed to adhere to the plate for 60 minutes at 37° C. without shaking. The media was carefully aspirated and 80 μL of TSB-G, or TSB-G supplemented with the amino acid compound solution was added to the plate. The plate was further incubated for 24 hours at 37° C. without shaking. Media was carefully aspirated and the biofilm was measured for bacterial cell concentration by optical density at 600 nm.

C. albicans biofilm [3] = test: Fungal biofilm disruption assay; assay type: cell-based, Candida albicans; conditions: 1% amino acid, p≤0.001
Protocol: as §1, §2, §4

fungal biofilms = test: Fungal biofilm assays (sustained inhibition and/or disruption); assay type: cell-based, Candida albicans; conditions: at least one of the two assays (sustained inhibition and/or disruption); for anti-biofilm properties against fungal biofilms: administered individually
Protocol: as §1, §2, §3, §4

S. aureus biofilm [4] = test: Bacterial biofilm disruption assay; assay type: cell-based; conditions: Staphylococcus aureus
Protocol: as §1, §2, §5
(§7) For the bacterial biofilm disruption assays, 80 μL of TSB-G was added to the plate, along with 1 μL of overnight cell culture. The cells were allowed to adhere to the plate for 60 minutes at 37° C. without shaking. The media was carefully aspirated and 80 μL of TSB-G was added to the plate. The plate was further incubated for 24 hours at 37° C. without shaking. Media was carefully aspirated from the mature biofilm and 80 μL of TSB-G, or TSB-G supplemented with the amino acid to be tested, was gently added to the plate. The plate was further incubated for 24 hours at 37° C. without shaking. Media was aspirated and the biofilm was measured for bacterial cell concentration by optical density at 600 nm. Twelve replicates were performed for each tested condition and the reported values were normalized to the control (TSB-G media only).

bacterial biofilms = test: Bacterial biofilm assays (sustained inhibition and/or disruption); assay type: cell-based, Staphylococcus aureus; conditions: for anti-biofilm properties against bacterial biofilms: individually, about 0.1 to about 5.0% weight to volume (cystathionine 0.2%), at least one of the two assays
Protocol: as §1, §2, §5
as §6, with “nm. Eight or twelve replicates were performed for each tested condition and the reported values were normalized to the control (TSB-G media only).” for “nm.”
as §7

S. aureus biofilm [5] = test: Bacterial biofilm inhibition assay; assay type: cell-based, Staphylococcus aureus; conditions: for Reduce B Biofilm: sustained inhibition assay, S. aureus, 1% amino acid, p≤0.001
Protocol: as §1, §2, §5
as §6, with “nm. Eight or twelve replicates were performed for each tested condition and the reported values were normalized to the control (TSB-G media only).” for “nm.”

[6] = tested on: bacteria (S. aureus) biofilm and fungal (C. albicans) biofilm; test: Disruption biofilm assay, bacterial and fungal together (Table D: Both/Neutral); assay type: cell-based, Staphylococcus aureus; Candida albicans; conditions: 1% amino acid
Protocol: as §1, §2
as §4, with “Twelve replicates were performed for each tested condition and the reported values are normalized to the control (RPMI-1640 media only).” left out
For the bacterial biofilm disruption assays, 80 μL of TSB-G was added to the plate, along with 1 μL of overnight cell culture. […] Media was aspirated and the biofilm was measured for bacterial cell concentration by optical density at 600 nm. […]

[7] = tested on: bacteria (S. aureus) biofilm and fungal (C. albicans) biofilm; test: Sustained inhibition biofilm assay, bacterial and fungal together (Table C: Both/Neutral); assay type: cell-based, Staphylococcus aureus; Candida albicans; conditions: 1% amino acid
Protocol: as §1, §2
Fungal strains were streaked on Yeast Peptone Dextrose (YPD) agar plates and incubated at 30° C. for 48 hours. A single colony from each strain to be tested was inoculated into YPD broth and grown for 12 hours, at 30° C., shaking at 225 rpm. For the fungal biofilm inhibition assay, 1 μl of saturated overnight cell culture was added to either 80 μL of RPMI-1640 or RPMI-1640 supplemented with the amino acid compound solution to be tested, in a 384-well plate. The cells were allowed to adhere to the plate for 90 minutes at 37° C. with shaking (350 rpm). […] Media was carefully aspirated and the biofilm was measured for fungal cell concentration by optical density at 600 nm. […]
For the bacterial biofilm inhibition assays, 1 μL of saturated overnight cell culture was added to either 80 μL of TSB-G, or TSB-G supplemented with the amino acid compound solution to be tested, in a 384-well plate. […] Media was carefully aspirated and the biofilm was measured for bacterial cell concentration by optical density at 600 nm. […]

[8] = Protocol: as §1, §2
[9] = disruption assay, S. aureus, 1% amino acid, p≤0.001, read-out: Reduce B Biofilm

SMILES	effect on bacterial and fungal biofilm (in words) [2]	inhibition at 1 % (S. aureus biofilm [4]; [9]) [%]	anti-biofilm properties against bacterial biofilms (bacterial biofilms)	Reduce F Biofilm (C. albicans biofilm [1])	Reduce B Biofilm (S. aureus biofilm [5])	Reduce F Biofilm (C. albicans biofilm [3])	anti-biofilm properties against fungal biofilms (fungal biofilms)	also measured
CC(C)[C@H](N)C(=O)O [Valine, L-valine]	promote bacterial and fungal biofilm							Promote F Biofilm (C. albicans biofilm [1]): • (a single dot (●) signifies an effect in a range of about 10 to about 30% change); Promote F Biofilm (C. albicans biofilm [3]): • (a single dot (●) signifies an effect in a range of about 10 to about 30% change); support (improve) fungal biofilm growth (fungal biofilms): support (improve) fungal biofilm growth
Cn1cncc1C[C@H](N)C(=O)O [3-Methylhistidine, 3-methyl-L-histidine]		10 to 30	anti-biofilm properties against bacterial biofilms					Promote F Biofilm (C. albicans biofilm [1]): • (a single dot (●) signifies an effect in a range of about 10 to about 30% change); Promote F Biofilm (C. albicans biofilm [3]): • (a single dot (●) signifies an effect in a range of about 10 to about 30% change); support (improve) fungal biofilm growth (fungal biofilms): support (improve) fungal biofilm growth
N[C@@H](CC(=O)O)C(=O)O [Aspartic Acid, L-aspartic acid]	very active against biofilm	> 30		•• (two dots (●●) signifies an effect of greater than 30% change)	•• (two dots (●●) signifies an effect of greater than 30% change)	•• (two dots (●●) signifies an effect of greater than 30% change)		Reduce Both [6]: •• (two dots (●●) signifies an effect of greater than 30% change); Reduce Both [7]: •• (two dots (●●) signifies an effect of greater than 30% change)
O=C(O)[C@@H]1C[C@@H](O)CN1 [Hydroxyproline, Trans-4-hydroxy-L-proline]			anti-biofilm properties against bacterial biofilms	• (a single dot (●) signifies an effect in a range of about 10 to about 30% change)	• (a single dot (●) signifies an effect in a range of about 10 to about 30% change)		anti-biofilm properties against fungal biofilms	inhibition at 1 % (S. aureus biofilm [4]; read-out: Reduce B Biofilm): 10 to 30%
N[C@@H](CS)C(=O)O [Cysteine, L-cysteine]		> 30		•• (two dots (●●) signifies an effect of greater than 30% change)	•• (two dots (●●) signifies an effect of greater than 30% change)	•• (two dots (●●) signifies an effect of greater than 30% change)		Reduce Both [6]: •• (two dots (●●) signifies an effect of greater than 30% change); Reduce Both [7]: •• (two dots (●●) signifies an effect of greater than 30% change)
N[C@@H](CCSC[C@H](N)C(=O)O)C(=O)O [Cystathionine, L-cystathionine]			anti-biofilm properties against bacterial biofilms					inhibition at 0.2 % (S. aureus biofilm [4]; disruption assay, S. aureus, 0.2% amino acid, read-out: Reduce B Biofilm): 10 to 30%; solubility (in words) [8]: limited solubility
N[C@@H](CCS)C(=O)O [Homocysteine, L-homocysteine]			anti-biofilm properties against bacterial biofilms				anti-biofilm properties against fungal biofilms	
N[C@@H](COP(=O)(O)O)C(=O)O [Phosphoserine, O-phospho-L-serine]		10 to 30	anti-biofilm properties against bacterial biofilms			• (a single dot (●) signifies an effect in a range of about 10 to about 30% change)	anti-biofilm properties against fungal biofilms	
NCCO [Ethanolamine, ethanolamine]			anti-biofilm properties against bacterial biofilms	• (a single dot (●) signifies an effect in a range of about 10 to about 30% change)			anti-biofilm properties against fungal biofilms	
NCCCC[C@H](N)C(=O)O [Lysine, L-lysine]	promote bacterial and fungal biofilm							activation at 1 % (S. aureus biofilm [4]; read-out: Promote B Biofilm): 10 to 30%; support (improve) bacterial biofilm growth (bacterial biofilms; based on the two assays (sustained inhibition and/or disruption)): support (improve) bacterial biofilm growth; activation at 1 % (S. aureus biofilm [5]; Staphylococcus aureus, read-out: Promote B Biofilm): 10 to 30%
Cn1cnc(C[C@H](N)C(=O)O)c1 [1-Methylhistidine, 1-methyl-L-histidine]								solubility (in words) [8]: limited solubility; neutral, effect on bacterial or fungal biofilms ([2]; both assays (sustained inhibition and disruption)): no effect on bacterial or fungal biofilms
N[C@@H](CCC(=O)O)C(=O)O [Glutamic Acid, L-glutamic acid]	very active against biofilm	> 30		•• (two dots (●●) signifies an effect of greater than 30% change)	•• (two dots (●●) signifies an effect of greater than 30% change)	•• (two dots (●●) signifies an effect of greater than 30% change)		Reduce Both [6]: •• (two dots (●●) signifies an effect of greater than 30% change); Reduce Both [7]: •• (two dots (●●) signifies an effect of greater than 30% change)
